From a melting point compilation (Tetko et al.; mined from patent text by program, amines drawn as free bases though some values may be those of a salt) come the findings set out here.

The melting point is the temperature of the solid-liquid transition.

Each structure is given as a SMILES string.

As for `NC(=O)N(O)CC#Cc1cccc(C2=N[C@H](c3ccc(F)cc3)CO2)c1`, the melting point came out at 181 °C.
The molecule `O=C(Nc1nc2c(ncn2CC(O)CF)c(=O)[nH]1)c1ccccc1` (racemic) yielded a melting point of 178 °C.
`COc1cc2c(c3c1C1CCC3CC1)OC(CN)C2` (centres undefined): the melting point is > 210 °C.
Consider `CC(=O)OC1CSC(Oc2cccc(-c3cnccn3)c2)C(OC(C)=O)C1OC(C)=O` (centres undefined), for which the melting point amounted to 92 °C.
Consider `NC(=O)N1C(=O)C(C(=O)c2ccccc2)c2nc(Cl)ccc21` (centres undefined), for which the melting point turned out to be 220 °C.
For `COC(=O)c1nc(-c2ccccn2)n2c1CN=C(c1ccccc1Cl)c1cc(Cl)ccc1-2`, the melting point was in the range of 282 to 285 °C.
Consider `COc1ccc(Nc2c([N+](=O)[O-])ccc(Cl)c2C(=O)O)cc1`, for which the melting point lay in the range of 205 to 213 °C.
Regarding `CCc1cc(N(CC)C(=O)N2CCN(c3cc(C)cc(C)c3)CC2)c(OC)nc1C`, the melting point fell in the range of 84 to 85 °C.
With `Cc1cccc(C)c1NC(C)CN(C)C=O` (centres undefined), the melting point was in the range of 69.5 to 72 °C.
As for `CC(C)=NNC(=O)NCCCN(C)CCCNC(=O)NN=C(C)C`, the melting point was 113 to 114 °C.
The result for `CC(C)(Oc1ccc(C2CCOCC2)cc1)C(=O)O` reads 112 °C; that for `O=c1[nH]c2[nH]c3ccc(Cl)cc3c2c2ccccc12`, > 300 °C; that for `Brc1ccc(-c2nc(COc3ccc(CCCn4ccnc4)cc3)co2)o1`, 115 to 116 °C.
Molecule `Cc1c[nH]c(=O)n(-c2cc(C(=O)OC(C)C)c(Cl)cc2F)c1=O` had a melting point of 170 to 173 °C.
`OCCCCCCCCN1CCC(C(O)(c2ccc(F)cc2)c2ccc(F)cc2)CC1` registered a melting point of 124 to 125 °C.
The molecule `O=S(=O)(Nc1ccccc1OCC1CCN(c2ccncc2)CC1)c1ccc2cc(Br)ccc2c1` came in with a melting point of 197 to 200 °C.
Consider `CCCn1c(=O)c(C(=O)OCC)c(O)c2cnc(SC)nc21`, for which the melting point is 130 to 133 °C.
Regarding `C[C@H]1C(=O)C[C@@H]2C[C@H]1OO[C@]2(C)/C=C\c1ccc(Cl)c(Cl)c1`, the melting point amounted to 135 °C.
Regarding `Cc1ccc(-c2cc(Cl)c3cc(Cl)ccc3n2)cc1`, the melting point was 123 to 125 °C.
In turn, `OC1CCCN(CC(O)COc2ccc(-c3ccc(Cl)cc3)cc2)C1` (centres undefined) returned a melting point of 95 to 97 °C.
Regarding `CC1(C(=O)NCc2cccs2)CCCCC1`, the melting point is 72 to 73 °C.
The result for `CC[C@@H]1CN(c2c(F)c(N)c3c(=O)c(C(=O)O)cn(C4CC4)c3c2F)C[C@H]1NC(=O)OC` (relative stereo) reads 231 to 232 °C; that for `CC(C)(C)c1csc(-c2cc3cc(Cc4nc(-c5ccccc5)c(CC(=O)O)s4)ccc3o2)n1`, 174 to 180 °C; that for `CC1Cc2cc3c(cc2C(c2ccc([N+](=O)[O-])cc2)=NN1c1nc(=O)n(C)s1)OCO3` (centres undefined), 177 to 180 °C.
For `NS(=O)(=O)c1cccnc1OCC1CC1`, the melting point lay within 121 to 122 °C.
`CCCc1cc([N+](=O)[O-])cc(C=O)c1O` gave a melting point of 69.5 to 70 °C.
Next, `O=C(O)[C@@H]1CCCN(CC#CCN2c3ccccc3CCc3ccccc32)C1`: 153 to 154 °C; `Cc1cc(O)c(CC(=O)OCCC(C)C)cc1O`: 99 °C; `Cc1ccccc1-c1ccc(C(=O)N2Cc3ccc(C(=O)NCc4ccc5c(c4)OCO5)n3Cc3ccccc32)cc1C`: 149 to 151 °C.
As to `CC(C)Oc1ccccc1CN1CCC(=O)C(C(c2ccc(F)cc2)c2ccc(F)cc2)C1` (centres undefined), the melting point was in the range of 155 to 156 °C.
In the case of `Cc1cc(OCc2ccccc2)c(F)cc1[N+](=O)[O-]`, the melting point came out at 95 °C.
In the case of `COC(=O)C(C#N)=C(Nc1cccnc1)SC`, the melting point was > 260 °C.
As to `Cc1ccc2ncn(-c3nnn[nH]3)c(=O)c2c1`, the melting point fell in the range of 285 to 286 °C.
Molecule `CCN(CC)Cc1cc(C(=O)c2ccccc2)cc(C2CCCCC2)c1O` returned a melting point of 106 to 107 °C.
With `COc1cc2c(cc1C=O)C(C)(C(F)(F)F)OCC2` (centres undefined), the melting point fell in the range of 82 to 93 °C.
The molecule `N#Cc1cn(-c2ccccc2)nc1-c1ccc([N+](=O)[O-])o1` had a melting point of 190 to 192 °C.
The result for `NS(=O)(=O)c1nc2ccc(OC(=O)CC3CCCC3)cc2s1` reads 118 to 120 °C.
Take `CC(C)(C)OC(=O)N1CCC(CI)CC1`: the melting point lay in the range of 58 to 59 °C.
The molecule `COc1cc(Nc2c(C#N)cnc3cc(/C=C/CN4CCOCC4)c(OC)cc23)c(Cl)cc1Cl` registered a melting point of 105 to 106 °C.
In the case of `CN(C)c1nc(N)nc2c1sc(=O)n2C1OC(CO)C(O)C1O` (centres undefined), the melting point was > 112 °C.
The result for `CN(c1cccc2cc(-c3nncs3)[nH]c12)S(=O)(=O)c1cccs1` reads 270 to 271 °C; that for `CC(=O)C1C(C)CC2C3CCC4CC(O)CCC4(C)C3C(=O)CC21C` (centres undefined), 138 to 140 °C.
The molecule `CN1CCC(=C2c3ccc(Cl)cc3CCc3cccnc32)CC1` gave a melting point of 116 to 119 °C.
`CC(=O)c1ccc(NC(=O)C(N)c2ccc3c(c2)C(C)(C)CCC3(C)C)cc1` (centres undefined) yielded a melting point of 138 to 139 °C.
Next, `CCN(CC)C(=O)c1c2nc3c(C(=O)N(CC)CC)c(N)c(O)c(C)c3oc-2c(C)c(=O)c1N`: 262 to 265 °C.
The result for `CC(C)N1CCN(C(=O)OC2CCN(c3ccc(C(N)=O)cn3)CC2)CC1` reads 200 to 204 °C; that for `CCCC(=O)Nc1ccc(OCc2nc3cc(F)ccc3s2)cc1`, 201 to 202 °C.
The molecule `Cc1nnc(-c2ccc3ncn(-c4ccc(S(C)=O)cc4)c3c2)o1` (centres undefined) returned a melting point of 246 to 247 °C.
For `Cn1cc(-c2cc(-c3cnc4[nH]cc(C(F)(F)F)c4c3)ccn2)n(-c2ccc(C(C)(C)C#N)cc2)c1=O`, the melting point came out at 159 °C.
`O=C1C(Br)=CC2(C=C1Br)CCNC1=C2C2=NCCc3c[nH]c(c32)C1=O`: the melting point was > 360 °C.
For the molecule `CC(C)CC(S)C(=O)NC1(C(=O)NC(Cc2ccc(-c3ccc(-c4cccc5ccccc45)cc3)cc2)C(=O)O)CCCC1` (centres undefined), the melting point lay in the range of 187 to 189 °C.
As for `O=C(O)CCC(=NO)c1ccc(-c2ccc(C(F)(F)F)cc2)cc1`, the melting point lay within 134 to 136 °C.
For `O=C1N[C@H](C(=O)NCCO[N+](=O)[O-])CO1`, the melting point is 102 to 103 °C.
With `CCCCCCCOc1cc2c(cc1/C(C)=C/c1ccc(C(=O)O)cc1)C(C)(C)CCCS2(=O)=O`, the melting point was in the range of 153 to 154 °C.
The result for `CCCC(=O)N[C@H]1C[C@H](C(=O)OC)Nc2cc(Cl)cc(Cl)c21` (relative stereo) reads 205 to 206 °C; that for `COC(=O)COc1c(-c2ccccc2)c(=O)[nH]c2cc(Cl)ccc12`, 188 to 191 °C; that for `COc1cc(OC)cc(C2CN3CCC2CC3)c1` (centres undefined), 142 to 145 °C.
With `CCCn1cc2c(n1)-c1c(nc3ccccc3c1N)CC2`, the melting point was 225 to 226 °C.
With `Clc1cc(-c2ccc(CBr)c(Cl)c2)ccc1CBr`, the melting point lay within 148 to 154 °C.
The result for `CN(C)C(=O)c1nc(-c2cccc3ccccc23)no1` reads 109 to 110 °C; that for `Cn1nc(-c2nc(C(N)=O)c(N)nc2-c2ccccc2)ccc1=O`, > 250 °C; that for `N#Cn1nc(-c2ccccc2)c(=O)cc1Cl`, 117 to 119 °C.
Molecule `CCOC(=O)C1=C(COCc2nnc(C)o2)NC(C)=C(C(=O)OC)C1c1cccc(Cl)c1Cl` (centres undefined) displayed a melting point of 118 to 120 °C.
The molecule `CC(=O)Nc1ccc(S(=O)(=O)c2cccc(Cl)c2)cc1` gave a melting point of 149 to 150 °C.
Molecule `CCOC(=O)c1cc(-n2c(=O)cc(C)[nH]c2=O)ccc1Cl` gave a melting point of 220 to 223 °C.
In turn, `O=C(NCCO)c1cccc(-c2ccc3c(c2)N(Cc2cc(Cl)ccc2Cl)CC3)c1` returned a melting point of 149 to 150 °C.
Molecule `Cc1c(O[Si](C)(C)C(C)(C)C)cc(N2C(=O)c3ccccc3C2=O)cc1C(=O)OCc1ccc([N+](=O)[O-])cc1` registered a melting point of 125 to 127 °C.
The molecule `Cn1ncc(-c2ccc3c(c2)c(C2CCN(CCN4CCNC4=O)CC2)cn3-c2ccc(F)cc2)n1` came in with a melting point of 203 to 204 °C.
Regarding `CC(C)(C)N1CN(C(C)(C)C)C(N)=C2C=NN=C21`, the melting point is 158 to 161 °C.
Regarding `O=[N+]([O-])c1ccc(-c2nc(-c3ccccc3)no2)o1`, the melting point was 164 to 166 °C.
Next, `c1cc(-c2csc(Cc3ncc[nH]3)n2)ccn1`: 178 to 180 °C; `CCCCc1nc2ccccc2n1Cc1ccc(C(=O)Nc2cccc3[nH]ccc23)cc1`: 196 °C.
Next, `COc1cc2c(Nc3ccc(Sc4nccn4C)c(Cl)c3)c(C#N)cnc2cc1-c1ccc(CN2CCOCC2)cc1`: 260 to 262 °C; `Cc1c(C)c(Cl)c(Cl)c(Cl)c1Cl`: 85 to 89 °C; `CC(C)Cn1c(=O)n(C)c(=O)c2cc(Cc3cccc(F)c3)sc21`: 76 to 78 °C.
On to `ICCC(c1ccccc1)c1ccccc1`, for which the melting point lay within 51 to 55 °C.
`Cc1cc(C(=O)C=C(c2cc(Cl)cc(Cl)c2)C(F)(F)F)ccc1C(=O)O` had a melting point of 123 to 126 °C.
Molecule `N#Cc1ccc(N(Cc2ccc(O)cc2)n2cncn2)cc1-c1ccccc1` returned a melting point of 169 to 170 °C.
Regarding `CCOC(=O)c1csc(-c2ncccc2O)n1`, the melting point is 131 to 134 °C.
The result for `CC(C)CC1N=C(c2ccccc2)c2cc(Cl)ccc2N=C1NN` (centres undefined) reads 165 to 168 °C; that for `N#Cc1ccc(-c2ccc(Cl)cc2)nc1Cl`, 179 to 181 °C; that for `CCCc1nn(-c2ccc(C(F)(F)F)cn2)cc1CCCCOc1ccc(CCC(=O)O)c(OC)c1`, 91 to 92 °C.
Consider `COC(=O)C(Cc1ccc(OCCn2c(=O)sc3cc(Cc4ccc(-c5ccccc5)cc4)ccc32)cc1)C(=O)OC`, for which the melting point amounted to 122 °C.
The molecule `Cc1cc(C(=O)O)c2cccc(OCc3ccccc3)c2n1` showed a melting point of 241 °C.
The molecule `OCC12CC3CC(CC(C3)C1O)C2` (centres undefined) displayed a melting point of 172 to 174 °C.
Next, `Cc1c(Br)c[nH]c1C=O`: 140 to 143 °C.
In the case of `O=C1CCCN(Cc2ccc([N+](=O)[O-])cc2Cl)c2ncccc21`, the melting point was found to be 162 °C.
For the molecule `O=C(N1Cc2cncnc2-c2ccc(Cl)cc2C1c1ccccc1Cl)C(F)(F)F` (centres undefined), the melting point was in the range of 178 to 179 °C.
On to `CCCCCCCCSCCCN=C=O`, for which the melting point fell in the range of 84 to 85 °C.
